Results on four compounds are retold here after the NIST ThermoML archive (doi:10.1016/j.fluid.2014.04.002).

Structures are written as SMILES. ± gives the expanded uncertainty stated by the source.

The first data set in a line: xn = mol fraction of the nth substance listed. The conditions noted are these: 313.15 K; 101 kPa; Liquid; Concentric cylinders viscometry; x2 = 0.
Turning to `C1CCOC1` [tetrahydrofuran] + CCOC(=O)C(C)O, the viscosity (as a rule, the resistance of a fluid to flow) is on record as 0.4227 ± 0.0085 mPa·s.
For `CC(O)CO` (centres undefined) [1,2-propanediol] + CCOC(=O)C(C)O, the viscosity came out at 19.85 ± 0.34 mPa·s.

The data set is the same for the next values; noted with them: 313.15 K; 101 kPa; Liquid; Vibrating tube method; x1 = 1.
In the case of `CCOC(=O)C(C)O` (stereo not drawn) [DL-ethyl lactate] + COCCOCCOCCOCCOC, the mass density (usually the mass of a sample divided by its volume) came to 1011.9 ± 0.86 kg/m3.

The data set is the same for the next values; noted with them: 313.15 K; 101 kPa; Liquid; Vibrating tube method; x2 = 0.
As to `OCCCO` [propan-1,3-diol] + CCOC(=O)C(C)O, the mass density was found to be 1040.28 ± 0.92 kg/m3.
As to `C1CCOC1` [tetrahydrofuran] + CCOC(=O)C(C)O, the mass density turned out to be 865.82 ± 0.23 kg/m3.
Consider `CC(O)CO` (centres undefined) [1,2-propanediol] + CCOC(=O)C(C)O, for which the mass density is on record as 1021.35 ± 0.25 kg/m3.

The data set is the same for the next values; noted with them: 318.15 K; 101 kPa; Liquid; Concentric cylinders viscometry; x1 = 1.
Regarding `CCOC(=O)C(C)O` (stereo not drawn) [DL-ethyl lactate] + COCCOCCOCCOCCOC, the viscosity was determined as 1.491 ± 0.029 mPa·s.

Staying with this data set, now noted: 318.15 K; 101 kPa; Liquid; Concentric cylinders viscometry; x2 = 0.
Turning to `OCCCO` [propan-1,3-diol] + CCOC(=O)C(C)O, the viscosity turned out to be 18.14 ± 0.35 mPa·s.
For the compound `C1CCOC1` [tetrahydrofuran] + CCOC(=O)C(C)O, the viscosity was 0.4005 ± 0.0082 mPa·s.
Regarding `CC(O)CO` (centres undefined) [1,2-propanediol] + CCOC(=O)C(C)O, the viscosity is 15.73 ± 0.27 mPa·s.

Still in this data set, the particulars now being: 318.15 K; 101 kPa; Liquid; Vibrating tube method; x1 = 1.
For the compound `CCOC(=O)C(C)O` (stereo not drawn) [DL-ethyl lactate] + COCCOCCOCCOCCOC, the mass density came out at 1006.36 ± 0.85 kg/m3.

The data set is the same for the next values; noted with them: 318.15 K; 101 kPa; Liquid; Vibrating tube method; x2 = 0.
With `OCCCO` [propan-1,3-diol] + CCOC(=O)C(C)O, the mass density was determined as 1037.11 ± 0.91 kg/m3.
Consider `C1CCOC1` [tetrahydrofuran] + CCOC(=O)C(C)O, for which the mass density came to 860.213 ± 0.23 kg/m3.
The same measure, in the same setting: then `CC(O)CO` (centres undefined) [1,2-propanediol] + CCOC(=O)C(C)O, with 1017.52 ± 0.24 kg/m3.

The data set is the same for the next values; noted with them: 323.15 K; 101 kPa; Liquid; Concentric cylinders viscometry; x1 = 1.
For `CCOC(=O)C(C)O` (stereo not drawn) [DL-ethyl lactate] + COCCOCCOCCOCCOC, the viscosity was found to be 1.349 ± 0.026 mPa·s.

Staying with this data set, now noted: 323.15 K; 101 kPa; Liquid; Concentric cylinders viscometry; x2 = 0.
For the compound `OCCCO` [propan-1,3-diol] + CCOC(=O)C(C)O, the viscosity came to 15.2 ± 0.29 mPa·s.
Consider `C1CCOC1` [tetrahydrofuran] + CCOC(=O)C(C)O, for which the viscosity is 0.3636 ± 0.0076 mPa·s.
The same measure, in the same setting: as for `CC(O)CO` (centres undefined) [1,2-propanediol] + CCOC(=O)C(C)O, the figure is 12.64 ± 0.22 mPa·s.

The data set is the same for the next values; noted with them: 323.15 K; 101 kPa; Liquid; Vibrating tube method; x1 = 1.
Regarding `CCOC(=O)C(C)O` (stereo not drawn) [DL-ethyl lactate] + COCCOCCOCCOCCOC, the mass density is on record as 1000.79 ± 0.84 kg/m3.

Still in this data set, the particulars now being: 323.15 K; 101 kPa; Liquid; Vibrating tube method; x2 = 0.
In the case of `OCCCO` [propan-1,3-diol] + CCOC(=O)C(C)O, the mass density was determined as 1033.91 ± 0.91 kg/m3.
With `C1CCOC1` [tetrahydrofuran] + CCOC(=O)C(C)O, the mass density was 854.558 ± 0.23 kg/m3.
`CC(O)CO` (centres undefined) [1,2-propanediol] + CCOC(=O)C(C)O: the mass density was 1013.66 ± 0.24 kg/m3.

A further data set in a line: refractive index (Na D-line) (dimensionless); xn = mol fraction of the nth substance listed. The conditions noted are these: 288.15 K; 101 kPa; Liquid; Standard Abbe refractometry; x1 = 1.
In the case of `CCOC(=O)C(C)O` (stereo not drawn) [DL-ethyl lactate] + COCCOCCOCCOCCOC, the refractive index (usually the speed of light in vacuum divided by its phase velocity in the sample) came to 1.41537 ± 0.00051.

The same data set, now with this note: 288.15 K; 101 kPa; Liquid; Standard Abbe refractometry; x2 = 0.
As for `OCCCO` [propan-1,3-diol] + CCOC(=O)C(C)O, the refractive index is reported as 1.44091 ± 0.00051.
For the compound `C1CCOC1` [tetrahydrofuran] + CCOC(=O)C(C)O, the refractive index was determined as 1.41005 ± 0.00037.
For `CC(O)CO` (centres undefined) [1,2-propanediol] + CCOC(=O)C(C)O, the refractive index was determined as 1.43437 ± 0.00037.

The same data set, now with this note: 293.15 K; 101 kPa; Liquid; Standard Abbe refractometry; x1 = 1.
Regarding `CCOC(=O)C(C)O` (stereo not drawn) [DL-ethyl lactate] + COCCOCCOCCOCCOC, the refractive index was determined as 1.41307 ± 0.00051.

The same data set, now with this note: 293.15 K; 101 kPa; Liquid; Standard Abbe refractometry; x2 = 0.
Regarding `OCCCO` [propan-1,3-diol] + CCOC(=O)C(C)O, the refractive index stood at 1.43949 ± 0.00051.
Still for that read-out and setting: then `C1CCOC1` [tetrahydrofuran] + CCOC(=O)C(C)O, with 1.40737 ± 0.00037; and `CC(O)CO` (centres undefined) [1,2-propanediol] + CCOC(=O)C(C)O, with 1.4327 ± 0.00037.

Staying with this data set, now noted: 298.15 K; 101 kPa; Liquid; Standard Abbe refractometry; x1 = 1.
Regarding `CCOC(=O)C(C)O` (stereo not drawn) [DL-ethyl lactate] + COCCOCCOCCOCCOC, the refractive index is given as 1.41076 ± 0.00051.

The same data set, now with this note: 298.15 K; 101 kPa; Liquid; Standard Abbe refractometry; x2 = 0.
Take `OCCCO` [propan-1,3-diol] + CCOC(=O)C(C)O: the refractive index is 1.43808 ± 0.00051.
For `C1CCOC1` [tetrahydrofuran] + CCOC(=O)C(C)O, the refractive index is recorded as 1.40472 ± 0.00037.
As to `CC(O)CO` (centres undefined) [1,2-propanediol] + CCOC(=O)C(C)O, the refractive index is 1.43102 ± 0.00037.

The same data set, now with this note: 303.15 K; 101 kPa; Liquid; Standard Abbe refractometry; x1 = 1.
With `CCOC(=O)C(C)O` (stereo not drawn) [DL-ethyl lactate] + COCCOCCOCCOCCOC, the refractive index is 1.40843 ± 0.00051.

Staying with this data set, now noted: 303.15 K; 101 kPa; Liquid; Standard Abbe refractometry; x2 = 0.
In the case of `OCCCO` [propan-1,3-diol] + CCOC(=O)C(C)O, the refractive index is 1.43667 ± 0.00051.
The same measure, in the same setting: as for `C1CCOC1` [tetrahydrofuran] + CCOC(=O)C(C)O, the figure is 1.40203 ± 0.00037; as for `CC(O)CO` (centres undefined) [1,2-propanediol] + CCOC(=O)C(C)O, 1.42934 ± 0.00037.

The data set is the same for the next values; noted with them: 308.15 K; 101 kPa; Liquid; Standard Abbe refractometry; x1 = 1.
In the case of `CCOC(=O)C(C)O` (stereo not drawn) [DL-ethyl lactate] + COCCOCCOCCOCCOC, the refractive index is on record as 1.4061 ± 0.00051.

Staying with this data set, now noted: 308.15 K; 101 kPa; Liquid; Standard Abbe refractometry; x2 = 0.
For `OCCCO` [propan-1,3-diol] + CCOC(=O)C(C)O, the refractive index came out at 1.43526 ± 0.00051.
The same measure, in the same setting: as for `C1CCOC1` [tetrahydrofuran] + CCOC(=O)C(C)O, the figure is 1.39931 ± 0.00037; as for `CC(O)CO` (centres undefined) [1,2-propanediol] + CCOC(=O)C(C)O, 1.42764 ± 0.00037.

The same data set, now with this note: 313.15 K; 101 kPa; Liquid; Standard Abbe refractometry; x1 = 1.
With `CCOC(=O)C(C)O` (stereo not drawn) [DL-ethyl lactate] + COCCOCCOCCOCCOC, the refractive index stood at 1.40374 ± 0.00051.

Still in this data set, the particulars now being: 313.15 K; 101 kPa; Liquid; Standard Abbe refractometry; x2 = 0.
As to `OCCCO` [propan-1,3-diol] + CCOC(=O)C(C)O, the refractive index worked out at 1.43384 ± 0.00051.
For the compound `C1CCOC1` [tetrahydrofuran] + CCOC(=O)C(C)O, the refractive index is recorded as 1.39659 ± 0.00037.
In the case of `CC(O)CO` (centres undefined) [1,2-propanediol] + CCOC(=O)C(C)O, the refractive index is given as 1.42591 ± 0.00037.

Staying with this data set, now noted: 318.15 K; 101 kPa; Liquid; Standard Abbe refractometry; x1 = 1.
On to `CCOC(=O)C(C)O` (stereo not drawn) [DL-ethyl lactate] + COCCOCCOCCOCCOC, for which the refractive index was 1.40136 ± 0.00051.

Still in this data set, the particulars now being: 318.15 K; 101 kPa; Liquid; Standard Abbe refractometry; x2 = 0.
For `OCCCO` [propan-1,3-diol] + CCOC(=O)C(C)O, the refractive index is on record as 1.43243 ± 0.00051.
Take `C1CCOC1` [tetrahydrofuran] + CCOC(=O)C(C)O: the refractive index is given as 1.3938 ± 0.00037.
On the same count and under the same terms, then `CC(O)CO` (centres undefined) [1,2-propanediol] + CCOC(=O)C(C)O, with 1.4242 ± 0.00037.

The same data set, now with this note: 323.15 K; 101 kPa; Liquid; Standard Abbe refractometry; x1 = 1.
Consider `CCOC(=O)C(C)O` (stereo not drawn) [DL-ethyl lactate] + COCCOCCOCCOCCOC, for which the refractive index was determined as 1.39898 ± 0.00051.

The data set is the same for the next values; noted with them: 323.15 K; 101 kPa; Liquid; Standard Abbe refractometry; x2 = 0.
As for `OCCCO` [propan-1,3-diol] + CCOC(=O)C(C)O, the refractive index was 1.43101 ± 0.00051.
With `C1CCOC1` [tetrahydrofuran] + CCOC(=O)C(C)O, the refractive index is reported as 1.39098 ± 0.00037.
Turning to `CC(O)CO` (centres undefined) [1,2-propanediol] + CCOC(=O)C(C)O, the refractive index stood at 1.42246 ± 0.00037.
